We go through 13 molecules from PubChem BioAssay (NCI).

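96-well plates; 48 h exposure; 5 concentrations. Endpoints by linear interpolation between flanking doses. Not reached: highest tested concentration assigned. Here, GI50 denotes the concentration required for 50% inhibition of growth. TGI: concentration producing complete growth inhibition.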

Some test systems named below: HT29 colon; 786-0 renal; OVCAR-3 ovarian; SF-295 CNS; SNB-19 CNS; HOP-92 NSCLC; SK-MEL-2 melanoma; NCI-H23 lung; K-562 leukemia; SR leukemia.
Test in all cases: NCI-60 cell line screen, 48 h

For the molecule `C=C(Cn1c(=O)c2ccccc2c2ccccc21)c1ccc(C(=O)Nc2ccccc2N)cc1`, the GI50 with HT29 colon was 13.3 µM; in the test on 786-0 renal, 5.95 µM; in the test with OVCAR-3 ovarian, 33.7 µM; in the test with SF-295 CNS, more than 79.7 µM; in the test on SNB-19 CNS it was 42.9 µM; in the test on HOP-92 NSCLC, 0.689 µM. The figures for the GI50 with SK-MEL-2 melanoma, in the test with NCI-H23 lung and in the test on K-562 leukemia were more than 86.3 µM, 30.3 µM and 0.781 µM, respectively. The TGI with HT29 colon was more than 83.8 µM; with 786-0 renal, more than 100 µM; with OVCAR-3 ovarian, more than 100 µM; with SF-295 CNS, more than 100 µM; in the test with SNB-19 CNS it was more than 100 µM; with HOP-92 NSCLC it was 26.1 µM. Further, the TGI in the test with SK-MEL-2 melanoma and in the test on NCI-H23 lung was more than 100 µM throughout.

Take `CC(C)=CCN=C(N)N`: the TGI in the test with HT29 colon was more than 100 µM; in the test with 786-0 renal, more than 100 µM; in the test on SR leukemia it was 83.6 µM; in the test with SF-295 CNS it was more than 100 µM; in the test with SNB-19 CNS it was more than 100 µM; in the test on HOP-92 NSCLC, more than 100 µM. Besides, the TGI in the test with SK-MEL-2 melanoma and in the test with NCI-H23 lung was more than 100 µM in each case.

On to `CC[P+](C)(Cc1ccccc1)c1ccccc1` (centres undefined), for which the TGI with HT29 colon, in the test with 786-0 renal, in the test with OVCAR-3 ovarian, with SR leukemia, with SF-295 CNS and in the test with SNB-19 CNS was more than 100 µM in each case. The TGI in the test on SK-MEL-2 melanoma, in the test with NCI-H23 lung and in the test on K-562 leukemia was more than 100 µM throughout.

Take `Cc1ccc(C)c(NC(=O)C(=O)CC(=O)C2CCOC2=O)c1` (centres undefined): the TGI with HT29 colon, with 786-0 renal, in the test with OVCAR-3 ovarian, in the test with SF-295 CNS, with SNB-19 CNS and in the test on HOP-92 NSCLC was more than 100 µM throughout. The TGI with SK-MEL-2 melanoma, in the test on NCI-H23 lung and in the test on K-562 leukemia was more than 100 µM each time.

`Cc1cccc(C(=O)c2cccc3ccccc23)c1C(=O)O`: the TGI with HT29 colon, in the test on 786-0 renal, in the test on OVCAR-3 ovarian, in the test on SF-295 CNS, in the test with SNB-19 CNS and in the test with HOP-92 NSCLC was more than 100 µM in each case. In addition, the TGI in the test with SK-MEL-2 melanoma, in the test on NCI-H23 lung and with K-562 leukemia was more than 100 µM in each case.

`Nc1ncnc2c1ncn2C1OC(COP(=O)(O)CP(=O)(O)O)C(O)C1O` (centres undefined): the TGI in the test on HT29 colon, with 786-0 renal, in the test on SR leukemia, in the test with SF-295 CNS, in the test with SNB-19 CNS and with SK-MEL-2 melanoma was more than 100 µM each time. The TGI in the test with NCI-H23 lung and in the test with K-562 leukemia was more than 100 µM each time.

As to `COc1ccc(C#Cc2ccccc2C#CCCCCO)cc1`, the GI50 in the test with HT29 colon was 12.3 µM; in the test on 786-0 renal, 22.8 µM; in the test with OVCAR-3 ovarian, 20.4 µM; with SF-295 CNS, 18.7 µM; in the test on SNB-19 CNS, 21.4 µM; in the test with HOP-92 NSCLC, 23.5 µM. Besides, the GI50 with SK-MEL-2 melanoma is 19.8 µM; with NCI-H23 lung, 19.2 µM; with K-562 leukemia it was 21.9 µM. Besides, the TGI was 24.8 µM in the test on HT29 colon; 45.9 µM in the test on 786-0 renal; 40.2 µM in the test on OVCAR-3 ovarian; 34.6 µM in the test on SF-295 CNS; 36.9 µM in the test with SNB-19 CNS; 47.7 µM with HOP-92 NSCLC. Also, the results for the TGI with SK-MEL-2 melanoma, with NCI-H23 lung and in the test with K-562 leukemia were 38.9 µM, 40.5 µM and 43.9 µM, respectively.

Take `Nc1nc(CCC(=O)Nc2cccc(C(F)(F)F)c2)cc(-c2cccc3ccccc23)n1`: the TGI in the test with HT29 colon, in the test on 786-0 renal, in the test with OVCAR-3 ovarian, with SR leukemia, in the test on SF-295 CNS and with SNB-19 CNS was more than 100 µM each time. Further, the TGI in the test with SK-MEL-2 melanoma, in the test on NCI-H23 lung and with K-562 leukemia was more than 100 µM throughout.

Consider `O=C1c2ccccc2C2(O)Nc3cc(O)ccc3C12O` (centres undefined), for which the TGI in the test on HT29 colon, in the test with 786-0 renal, in the test on OVCAR-3 ovarian, in the test on SF-295 CNS, in the test with SNB-19 CNS and in the test on HOP-92 NSCLC was more than 100 µM each time. Further, the TGI in the test with SK-MEL-2 melanoma, in the test on NCI-H23 lung and with K-562 leukemia was more than 100 µM each time.

In the case of `Cc1ccc(NCCCN2CCN(CCCNc3ccc(C)c4sc5ccccc5c(=O)c34)CC2)c2c(=O)c3ccccc3sc12`, the TGI with HT29 colon, in the test on 786-0 renal, with OVCAR-3 ovarian, in the test on SR leukemia, in the test on SF-295 CNS and in the test on SNB-19 CNS was more than 100 µM throughout. In addition, the TGI in the test on SK-MEL-2 melanoma was 93.8 µM; with NCI-H23 lung it was more than 100 µM; in the test on K-562 leukemia it was more than 100 µM.

On to `COc1cc(C(=O)OCCCCCCCCCCC[P+](c2ccccc2)(c2ccccc2)c2ccccc2)ccc1O`, for which the values for the GI50 in the test with 786-0 renal, with SR leukemia and in the test on SK-MEL-2 melanoma were 1.06 µM, 0.364 µM and 0.522 µM, respectively. In addition, the TGI with 786-0 renal turned out to be 2.38 µM; in the test with SR leukemia, 2.31 µM; in the test on SK-MEL-2 melanoma, 1.88 µM.

For the molecule `COc1ccc(S(=O)(=O)NC(C)C(=O)O)cc1` (centres undefined), the TGI in the test with HT29 colon, in the test on 786-0 renal, in the test on OVCAR-3 ovarian, in the test on SF-295 CNS, in the test with SNB-19 CNS and in the test with HOP-92 NSCLC was more than 100 µM each time. The TGI with SK-MEL-2 melanoma, in the test on NCI-H23 lung and with K-562 leukemia was more than 100 µM in each case.

With `C=CCC1OC(C)(C)Oc2ccc(OCOCCOC)cc21` (centres undefined), the TGI with HT29 colon, in the test with 786-0 renal, in the test on OVCAR-3 ovarian, with SF-295 CNS, in the test with SNB-19 CNS and with HOP-92 NSCLC was more than 100 µM throughout. Also, the TGI in the test on SK-MEL-2 melanoma, in the test on NCI-H23 lung and in the test on K-562 leukemia was more than 100 µM in each case.
